Tests used:
C3H 10T1/2 = assay: Inhibition of arachidonic acid metabolite release in C3H10T1/2 cells; assay type: functional, Mus musculus
[1] = target: Epidermal growth factor receptor (Mus musculus) (UniProt Q01279); assay: Inhibition of epidermal growth factor binding in C3H10T1/2 cells; assay type: functional, cell-based; conditions: C3H 10T1/2
[2] = Displacement of [3H]PDBu from Protein kinase C in vitro; parameters: species or system Mus musculus

Sequence of Epidermal growth factor receptor (Mus musculus) (Q01279 whole entry): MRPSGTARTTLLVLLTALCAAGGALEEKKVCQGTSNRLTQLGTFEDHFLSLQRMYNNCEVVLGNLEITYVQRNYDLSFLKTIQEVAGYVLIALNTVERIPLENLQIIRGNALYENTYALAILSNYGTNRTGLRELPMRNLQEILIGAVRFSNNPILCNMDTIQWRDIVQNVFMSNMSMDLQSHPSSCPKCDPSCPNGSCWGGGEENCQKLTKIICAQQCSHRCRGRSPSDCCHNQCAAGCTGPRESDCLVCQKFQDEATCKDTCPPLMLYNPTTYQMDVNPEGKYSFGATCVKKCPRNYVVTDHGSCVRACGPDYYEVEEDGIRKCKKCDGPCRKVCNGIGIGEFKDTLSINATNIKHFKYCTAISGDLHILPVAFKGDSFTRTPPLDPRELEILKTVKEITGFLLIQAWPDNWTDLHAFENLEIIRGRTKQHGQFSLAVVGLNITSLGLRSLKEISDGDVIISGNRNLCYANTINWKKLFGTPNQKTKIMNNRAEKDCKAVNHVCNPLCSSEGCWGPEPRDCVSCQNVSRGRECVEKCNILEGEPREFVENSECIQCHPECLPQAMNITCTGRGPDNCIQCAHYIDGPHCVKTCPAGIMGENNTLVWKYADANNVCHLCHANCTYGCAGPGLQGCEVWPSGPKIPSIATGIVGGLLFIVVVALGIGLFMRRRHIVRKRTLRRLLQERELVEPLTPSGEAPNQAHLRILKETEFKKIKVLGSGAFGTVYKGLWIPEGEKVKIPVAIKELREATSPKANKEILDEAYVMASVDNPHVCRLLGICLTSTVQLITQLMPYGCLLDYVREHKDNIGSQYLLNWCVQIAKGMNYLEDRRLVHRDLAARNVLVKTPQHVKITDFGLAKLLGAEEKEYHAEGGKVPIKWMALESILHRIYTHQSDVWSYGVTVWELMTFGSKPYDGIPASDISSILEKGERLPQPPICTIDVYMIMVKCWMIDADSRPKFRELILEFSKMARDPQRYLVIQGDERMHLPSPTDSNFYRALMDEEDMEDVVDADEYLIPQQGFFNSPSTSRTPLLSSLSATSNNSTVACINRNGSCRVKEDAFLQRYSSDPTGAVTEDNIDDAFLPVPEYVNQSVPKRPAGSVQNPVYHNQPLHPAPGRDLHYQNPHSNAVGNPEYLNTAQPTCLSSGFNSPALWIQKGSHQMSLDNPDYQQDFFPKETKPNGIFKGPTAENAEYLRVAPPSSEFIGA

`CC(=O)O[C@@]12C[C@@H](C)[C@@]3(O)[C@@H](C=C(CO)C[C@]4(O)C(=O)C(C)=C[C@@H]34)[C@@H]1C2(C)C` [PROSTRATIN] gave an Effective concentration (C3H 10T1/2) of 1100 nM, an Effective concentration [1] of 220 nM and a Ki [2] of 12.5 nM.

Reference: ChEMBL document CHEMBL1126055, “A nonpromoting phorbol from the samoan medicinal plant Homalanthus nutans inhibits cell killing by HIV-1” (J Med Chem, 1992)
